Consider 20 compounds from patent US11306078B2, “Piperidine CXCR7 receptor modulators” (IDORSIA PHARMACEUTICALS LTD., priority 2016, dated 2022).

The target of this assay is human chemokine receptor CXCR7 (Homo sapiens (Human), UniProt P25106). Briefly: Tango CXCR7-bla U2OS beta-arrestin recruitment assay (beta-lactamase reporter, FRET), antagonism of CXCL12/SDF1-α.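 Further: compounds preincubated 15 min before CXCL12 addition, then 22 h at 37 °C, FRET emission ratio read with CCF4-AM substrate after 2 h.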 The assay is classed as cell-based. The note with it: antagonistic effect on CXCR7; Tango CXCR7-bla U2OS cells, CXCL12/SDF1-α at its EC80. In general terms: Activated receptors often draw arrestin, which recruitment assays turn into a signal.
Chain of human chemokine receptor CXCR7 (P25106 whole entry): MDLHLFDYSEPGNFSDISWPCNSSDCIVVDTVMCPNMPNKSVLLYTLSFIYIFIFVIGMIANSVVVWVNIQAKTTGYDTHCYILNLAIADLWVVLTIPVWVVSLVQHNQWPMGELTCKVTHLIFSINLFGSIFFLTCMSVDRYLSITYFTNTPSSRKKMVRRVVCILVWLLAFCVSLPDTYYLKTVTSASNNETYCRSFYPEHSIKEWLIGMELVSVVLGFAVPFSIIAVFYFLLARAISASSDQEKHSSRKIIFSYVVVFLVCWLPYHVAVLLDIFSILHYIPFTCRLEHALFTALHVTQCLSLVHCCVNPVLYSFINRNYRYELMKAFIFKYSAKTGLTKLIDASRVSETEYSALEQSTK
As a reminder, the IC50 is the concentration needed to halve the response being measured. Higher therefore signals weaker potency in that assay. On to `C[C@@H](NC(=O)[C@@H]1CN(C2CCCC2)CC[C@H]1NC(=O)c1cc(-c2c(F)cc(F)cc2F)on1)C1CCC1` (single isomer, unassigned) [Example 1.138a, (3R*,4R*)-1-Cyclopentyl-4-{[5-(2,4,6-trifluoro-phenyl)-isoxazole-3-carbonyl]-amino}-piperidine-3-carboxylic acid ((R)-1-cyclobutyl-ethyl)-amide], for which the concentration for half-maximal inhibition (IC50) stood at 437 nM.

For `C[C@@H](NC(=O)[C@@H]1CN(C2CCCC2)CC[C@H]1NC(=O)c1cc(-c2ccc(F)cc2F)no1)c1ccccn1` (relative stereo) [Example 1.126, (3R*,4R*)-1-Cyclopentyl-4-{[3-(2,4-difluoro-phenyl)-isoxazole-5-carbonyl]-amino}-piperidine-3-carboxylic acid ((R)-1-pyridin-2-yl-ethyl)-amide], half-maximal inhibition (IC50) was put at 49 nM.

`O=C(N[C@H]1CCN(CC2CC2)C[C@@H]1C(=O)NC1(c2ncccn2)CC1)c1cn(-c2ccc(F)cc2F)nn1` [Example 7.004, (3S,4S)-1-Cyclopropylmethyl-4-{[1-(2,4-difluoro-phenyl)-1H-[1,2,3]triazole-4-carbonyl]-amino}-piperidine-3-carboxylic acid (1-pyrimidin-2-yl-cyclopropyl)-amide] had a concentration for half-maximal inhibition (IC50) of 64 nM.

For `O=C(N[C@@H]1CCN(C2CCCCC2)C[C@H]1C(=O)N1CCC(O)C1)c1cc(-c2ccc(F)cc2F)on1` (relative stereo) [Example 1.028, 5-(2,4-Difluoro-phenyl)-isoxazole-3-carboxylic acid [(3R*,4R*)-1-cyclohexyl-3-((3RS)-3-hydroxy-pyrrolidine-1-carbonyl)-piperidin-4-yl]-amide], inhibition was half-maximal at 916 nM (IC50).

Turning to `CC[C@@H]1CCC[C@H]1N1CC[C@@H](NC(=O)c2cc(-c3ccc(F)cc3F)on2)[C@H](C(=O)N(C)C)C1` [Example 2.015], the IC50 was 54 nM.

Consider `COc1ccccc1C(C)NC(=O)[C@H]1CN(CC2CC2)CC[C@@H]1NC(=O)c1cc(-c2ccc(F)cc2F)on1` (single isomer, unassigned) [Example 4.072a], for which the IC50 turned out to be 8 nM.

In turn, `O=C(N[C@@H]1CCN(C2CCCC2)C[C@H]1C(=O)NC1(c2ccccn2)CC1)c1cc(-c2c(F)cc(F)cc2F)on1` [Example 1.17] yielded an IC50 of 16 nM.

For `O=C(N[C@H]1CCN(C2CCC2)C[C@@H]1C(=O)NC1(c2cccc(Cl)c2)COC1)c1cc(-c2ccc(F)cc2F)on1` [Example 4.097], the concentration for half-maximal inhibition (IC50) was 80 nM.

The compound `C[C@@H](NC(=O)[C@@H]1CN(CC2CC2)CC[C@H]1NC(=O)c1cc(-c2ccc(F)cc2F)no1)c1ccccn1` (relative stereo) [Example 1.154, (3R*,4R*)-1-Cyclopropylmethyl-4-{[3-(2,4-difluoro-phenyl)-isoxazole-5-carbonyl]-amino}-piperidine-3-carboxylic acid ((R)-1-pyridin-2-yl-ethyl)-amide] came in with an IC50 of 54 nM.

On to `CN(C)C(=O)[C@@H]1CN([C@@H]2CCC[C@H]2CO)CC[C@H]1NC(=O)c1cc(-c2ccc(F)cc2F)on1` [Example 2.014], for which the half-maximal inhibitory concentration (IC50) amounted to 269 nM.

Take `O=C(N[C@@H]1CCN(C2CCCCC2)C[C@H]1C(=O)NC[C@@H](O)c1ccccc1)c1cc(-c2ccc(F)cc2F)on1` (relative stereo) [Example 1.073, (3R*,4R*)-1-Cyclohexyl-4-{[5-(2,4-difluoro-phenyl)-isoxazole-3-carbonyl]-amino}-piperidine-3-carboxylic acid ((S)-2-hydroxy-2-phenyl-ethyl)-amide]: the IC50 came to 118 nM.

`COc1ccccc1C1(NC(=O)[C@@H]2CN(CC3CC3)CC[C@H]2NC(=O)c2cc(-c3ccc(F)cc3F)on2)CC1` (racemic) [Example 1.198, rac-(3R*,4R*)-1-Cyclopropylmethyl-4-{[5-(2,4-difluoro-phenyl)-isoxazole-3-carbonyl]-amino}-piperidine-3-carboxylic acid [1-(2-methoxy-phenyl)-cyclopropyl]-amide] had an IC50 of 52 nM.

Consider `O=C(N[C@H]1CCN(CC2CC2)C[C@@H]1C(=O)NC1(c2ncccn2)CC1)c1nnc(-c2ccc(F)cc2F)s1` [Example 7.016, (3S,4S)-1-Cyclopropylmethyl-4-{[5-(2,4-difluoro-phenyl)-[1,3,4]thiadiazole-2-carbonyl]-amino}-piperidine-3-carboxylic acid (1-pyrimidin-2-yl-cyclopropyl)-amide], for which the half-inhibitory concentration (IC50) stood at 2 nM.

In turn, `COCC(C)(C)NC(=O)[C@@H]1CN(C2CCCCC2)CC[C@H]1NC(=O)c1cc(-c2c(F)cc(F)cc2F)on1` (single isomer, unassigned) [Example 1.111a, (3R*,4R*)-1-Cyclohexyl-4-{[5-(2,4,6-trifluoro-phenyl)-isoxazole-3-carbonyl]-amino}-piperidine-3-carboxylic acid (2-methoxy-1,1-dimethyl-ethyl)-amide] had a concentration for half-maximal inhibition (IC50) of 944 nM.

Turning to `Cc1cccc([C@@H](C)NC(=O)[C@@H]2CN(C3CCCCC3)CC[C@H]2NC(=O)c2cc(-c3ccc(F)cc3F)on2)n1` (single isomer, unassigned) [Example 1.188b, (3R*,4R*)-1-Cyclohexyl-4-{[5-(2,4-difluoro-phenyl)-isoxazole-3-carbonyl]-amino}-piperidine-3-carboxylic acid [(R)-1-(6-methyl-pyridin-2-yl)-ethyl]-amide], the midpoint of inhibition, the IC50, lay at 519 nM.

In turn, `CN(C)C(=O)[C@@H]1CN(C2CCC2)CC[C@H]1NC(=O)c1cc(-c2ccc(F)cc2F)on1` [Example 2.028] displayed a half-maximal inhibitory concentration (IC50) of 60 nM.

With `O=C(N[C@H]1CCN(CC2CC2)C[C@@H]1C(=O)NC1(c2ncccn2)CC1)c1cc(-c2ccc(F)c(F)c2)on1` [Example 7.013, (3S,4S)-1-Cyclopropylmethyl-4-{[5-(3,4-difluoro-phenyl)-isoxazole-3-carbonyl]-amino}-piperidine-3-carboxylic acid (1-pyrimidin-2-yl-cyclopropyl)-amide], 252 nM corresponded to half-maximal inhibition (IC50).

Turning to `CC(CF)NC(=O)[C@@H]1CN(C2CCCCC2)CC[C@H]1NC(=O)c1cc(-c2ccc(F)cc2F)on1` (relative stereo) [Example 1.082, (3R*,4R*)-1-Cyclohexyl-4-{[5-(2,4-difluoro-phenyl)-isoxazole-3-carbonyl]-amino}-piperidine-3-carboxylic acid ((1RS)-2-fluoro-1-methyl-ethyl)-amide], the half-maximal inhibitory concentration (IC50) was determined as 445 nM.

`CCOCC(C)NC(=O)[C@@H]1CN(C2CCCCC2)CC[C@H]1NC(=O)c1cc(-c2ccc(F)cc2F)on1` (relative stereo) [Example 1.083, (3R*,4R*)-1-Cyclohexyl-4-{[5-(2,4-difluoro-phenyl)-isoxazole-3-carbonyl]-amino}-piperidine-3-carboxylic acid ((1RS)-2-ethoxy-1-methyl-ethyl)-amide] had an IC50 of 76 nM.

The compound `CC(NC(=O)[C@@H]1CN(C2CCCCC2)CC[C@H]1NC(=O)c1cc(-c2ccc(F)cc2F)on1)c1ncc(F)cc1F` (relative stereo) [Example 1.086, (3R*,4R*)-1-Cyclohexyl-4-{[5-(2,4-difluoro-phenyl)-isoxazole-3-carbonyl]-amino}-piperidine-3-carboxylic acid [(1RS)-1-(3,5-difluoro-pyridin-2-yl)-ethyl]-amide] yielded an IC50 of 154 nM.
